Experimental data published in US20070142227A1, “Systemic inducer composition for plants” (priority 2003, published 2007).

Tests used:
[1] = system: mildew; assay: Specific microorganism extracts and chemical compounds, grape mildew (Table II); type: in vivo, grapes
[2] = system: infection of leaves; type: in vivo; settings: lettuce every 10 days, foliar; chemical compound 25 grams, extract 5 grams
[3] = system: infected leaves and fruits; type: in vivo; settings: strawberry every 10 days, foliar; chemical compound 25 grams, extract 5 grams
[4] = system: leaf infection; type: in vivo, tomato; settings: tomatoes every week, foliar; chemical compound 25 grams, extract 5 grams
[5] = system: infection of fruits; type: in vivo; settings: blueberry every 15 days, foliar; chemical compound 25 grams, extract 5 grams
[6] = system: fire blight; assay: Specific microorganism extracts and chemical compounds, apple fire blight burn (Table II); type: in vivo, apples
[7] = system: early & late blight; type: in vivo; settings: potatoes 4 times during season, foliar; chemical compound 25 grams, extract 5 grams
[8] = system: sigatoka; assay: Specific microorganism extracts and chemical compounds, banana sigatoka (Table II); type: in vivo
[9] = system: Fire Blight; assay: Resistance induction in apple trees against fire blight (Table I B); settings: in vivo
[10] = system: Nematodes; assay: Resistance induction in bananas against nematodes (Table I D); parameters: species or system banana; settings: in vivo
[11] = system: Black Sigatoka; assay: Resistance induction in bananas against Black Sigatoka (Table I D); parameters: species or system banana; settings: in vivo
[12] = system: foliar infection; type: in vivo; settings: tomato plants, chemical compound 1.5 kg per acre, extract 5 grams per acre, every 10 days
[13] = system: Foliar Infections; type: in vivo; settings: strawberry plant, chemical compound 1.5 kg per acre, extract 5 grams per acre, once a week
[14] = system: nematodes; assay: Resistance induction in tomato plants, nematodes (Table I C); settings: in vivo
[15] = system: nematode; assay: Resistance induction in strawberry plant, root infection (Table I A); settings: in vivo
[16] = system: phytopthora; type: in vivo; settings: tomato plants, chemical compound 1.5 kg per acre, extract 5 grams per acre, every 10 days
[17] = Growth effect, tomatoes (Table III); type: in vivo; settings: every 10 days, foliar, chemical compound 3 kg, extract 5 grams
Experimental: (§1) These chemical compounds were tested at rates 0.25 to 3 kg per acre of citrus, strawberries, tomatoes and bananas by themselves to measure (A) fertilizer effect on foliar uptake, (B) growth effect, (C) resistance induction effect. These compounds were then combined with extracts of pseudomonas, subtilis species and actinomyces and applied to the similar set of plants and measured for A, B, and C as above. These extracts were also applied to a similar set of plants and measured for A, B, and C as above.

[18] = Growth effect, bananas (Table III); type: in vivo; settings: every week, foliar, for 6 months, chemical compound 3 kg, extract 5 grams
Experimental: as §1

[19] = system: leaf disease, botrylis; assay: Induction of resistance, tomato leaf infection (Table III); type: in vivo; settings: tomatoes, every 10 days, foliar; chemical compound 3 kg, extract 5 grams
Experimental: as §1

[20] = Growth effect, citrus (Table III); type: in vivo; settings: foliar, 4 times in 1 year, chemical compound 3 kg, extract 5 grams
Experimental: as §1

[21] = system: leaf disease; assay: Induction of resistance, strawberry leaf disease (Table III); type: in vivo; settings: every 10 days, chemical compound 3 kg, extract 5 grams
Experimental: as §1

[22] = system: phytopthora; assay: Induction of resistance, tomato phytopthora in roots (Table III); type: in vivo; settings: tomatoes, every 10 days, foliar; chemical compound 3 kg, extract 5 grams
Experimental: as §1

[23] = system: Black Sigatoka; assay: Induction of resistance, banana Sigatoka (Table III); type: in vivo; settings: bananas, every week, foliar, for 6 months; chemical compound 3 kg, extract 5 grams
Experimental: as §1

[24] = system: phytopthora; assay: Induction of resistance, citrus phytopthora in roots (Table III); type: in vivo; settings: foliar, 4 times in 1 year, chemical compound 3 kg, extract 5 grams
Experimental: as §1

[25] = system: die back; assay: Induction of resistance, citrus die back (Table III); type: in vivo; settings: foliar, 4 times in 1 year, chemical compound 3 kg, extract 5 grams
Experimental: as §1

[26] = Growth effect, strawberry (Table III); type: in vivo; settings: every 10 days, chemical compound 3 kg, extract 5 grams
Experimental: as §1

[27] = bananas every week for 6 months, foliar, chemical compound 25 grams alone

O=C([O-])CC(O)(CC(=O)[O-])C(=O)[O-].O=C([O-])CC(O)(CC(=O)[O-])C(=O)[O-].[Ca+2].[Ca+2].[Ca+2] [calcium citrate]
mildew ([1]; in vivo): 55% mildew
infection of leaves [2]: 90% infection
infected leaves [3]: 80% infection
infected leaves / leaf infection [4]: 85% infection
infection of fruits [5]: 30% infection of fruits
fire blight burn (leaves) ([6]; in vivo): 20% fire blight burn
infected leaves (early & late blight) [7]: 25% leaf infection
infection (sigatoka, leaves) ([8]; in vivo): 85% infection-all leaves except youngest 3
infection-all leaves except youngest (number of youngest leaves) ([8]; in vivo): 85% infection-all leaves except youngest 3

O=[N+]([O-])[O-].O=[N+]([O-])[O-].[Ca+2] [calcium nitrate]
Results On Development of Fire Blight [9]: 20% fire blight
Results On Nematode Infection [10]: 7 Leaves at Flowering, High Nematode infection
Results On Black Sigatoka: Leaves at Flowering [11]: 7 Leaves at Flowering, High Nematode infection
Results In Foliar & Root Infections: foliar infection [12]: 15% foliar infection, 15% phytopthora, 20% nematrode
Results in Foliar Infections [13]: 20% infection
Results In Foliar & Root Infections: nematode [14]: 15% foliar infection, 15% phytopthora, 20% nematrode
Results in Root Infection (nematode infection) [15]: 20% nematode infection
Results In Foliar & Root Infections: phytopthora [16]: 15% foliar infection, 15% phytopthora, 20% nematrode

O=P(O)(O)O [potassium phosphate]
Results On Development of Fire Blight [9]: 18% fire blight
Results On Nematode Infection [10]: 7 Leaves at Flowering, High Nematode infection
Results On Black Sigatoka: Leaves at Flowering [11]: 7 Leaves at Flowering, High Nematode infection
Results In Foliar & Root Infections: foliar infection [12]: 15% foliar infection, 15% phytopthora, 20% nematrode
Results in Foliar Infections [13]: 20% infection
Results In Foliar & Root Infections: nematode [14]: 15% foliar infection, 15% phytopthora, 20% nematrode
Results in Root Infection (nematode infection) [15]: 20% nematode infection
Results In Foliar & Root Infections: phytopthora [16]: 15% foliar infection, 15% phytopthora, 20% nematrode

potassium phosphite
mildew ([1]; grapes every 15 days, foliar, chemical compound 25 grams, extract 5 grams): 70% mildew
infection of leaves [2]: 85% infection
infected leaves [3]: 85% infection
Growth effect [17]: no increase
infected leaves / leaf infection [4]: 100% infection
Growth effect [18]: no increase
Induction of Resistance: leaf infection [19]: 35% leaf infection
Growth effect [20]: zero improvement
Induction of Resistance: leaf disease, infection [21]: suppression, 25% infection
infection of fruits [5]: 35% infection of fruits
fire blight burn (leaves) ([6]; apples (2 yr old) 10 days post bud break & 1 week later, foliar, chemical compound 25 grams, extract 5 grams): 25% fire blight burn
Induction of Resistance: phytopthora in roots [22]: phytopthora zero control,
Induction of Resistance: Sigatoka control, leaves with no symptoms [23]: only 4 youngest leaves
Induction of Resistance: phytopthora in roots [24]: zero resistance to phytopthora,
infected leaves (early & late blight) [7]: 35% leaf infection
Induction of Resistance: die back [25]: die back as usual
Growth effect [26]: no increase
infection (sigatoka, leaves) [8, 27]: 90%
infection-all leaves except youngest (number of youngest leaves) [8, 27]: 4
